Source: publication PMC6009894, “Molecular modelling insights into a physiologically favourable approach to eicosanoid biosynthesis inhibition through novel thieno[2,3-b]pyridine derivatives” (Journal of Enzyme Inhibition and Medicinal Chemistry, 2018)
Where “and” joins values, the source holds several entries; their conditions need not be identical. Equal values may be shown once. Each block holds one compound with its values, some of them ahead of it.

Legend:
[1] = test system: carrageenan-induced rat paw oedema; assay: carrageenan-induced rat paw oedema assay; type: in vivo, Sprague–Dawley rats; settings: for Inhibition of acute inflammation % inh / Swel (mean difference in rat paw volume between right and left paw): dose equivalent to 70 mg kg-1 ibuprofen; for Swel (mean difference in rat paw volume between right and left paw): DMSO
Procedure: According to a priori test results, experiments were conducted on young adult male Sprague–Dawley rats (5 rats per group), weighing 140–170 g. The animals were housed at cages in a temperature controlled (25 ± 1 °C) environment and were fed ad libitum with standard laboratory chow and allowed free access to water. […] The animal protocol is in accordance with the Animal Ethical Care regulations in the Faculty of Pharmacy, Helwan University.
Compounds (equimolar to the reference drug) were dissolved in DMSO and administrated subcutaneously. One hour later, paw oedema was induced by subplantar injection of 0.1 ml of 1% carrageenan (Sigma-Aldrich, St. Louis, MO) into the right hind paw. Paw volume was measured using a water plethysmometer (Basile, Comerio, Italy). The difference between the right and left paw volume was measured at 1, 2, 3, and 4 h after induction of inflammation.
The control group (five rats per group) received DMSO subcutaneously and carrageenan in the subplantar region. Results were expressed as percentage inhibition of inflammation.

- melting point: 105 to 107 °C
SMILES: CC1=CC(C)=C(C#N)C2SC(=Cc3ccccc3)C(=O)N12 (racemic) [Compound 2a]
- Inhibition of acute inflammation % inh ([1]; 1 h): 0%
- Swel (mean difference in rat paw volume between right and left paw) ([1]; 1 h after carrageenan): 0.457
- Inhibition of acute inflammation % inh ([1]; 2 h): 0%
- Swel (mean difference in rat paw volume between right and left paw) ([1]; 2 h after carrageenan): 0.595
- Inhibition of acute inflammation % inh ([1]; 3 h): 16.605%
- Swel (mean difference in rat paw volume between right and left paw) ([1]; 3 h after carrageenan): 0.453
- Inhibition of acute inflammation % inh ([1]; 4 h): 21.95%
- Swel (mean difference in rat paw volume between right and left paw) ([1]; 4 h after carrageenan): 0.491

- melting point: 180 to 182 °C
SMILES: CC1=CC(C)=C(C#N)C2SCN(c3ccccc3)CN12 (racemic) [Compound 4a, (±)3-Aryl-2,3,4,9a-tetrahydro-6,8-dimethylpyrido[2,1-b][1,3,5]thiadiazine-9-carbonitrile]
- Inhibition of acute inflammation % inh ([1]; 1 h): 0%
- Swel (mean difference in rat paw volume between right and left paw) ([1]; 1 h after carrageenan): 0.394
- Inhibition of acute inflammation % inh ([1]; 2 h): 0%
- Swel (mean difference in rat paw volume between right and left paw) ([1]; 2 h after carrageenan): 0.407
- Inhibition of acute inflammation % inh ([1]; 3 h): 38.174%
- Swel (mean difference in rat paw volume between right and left paw) ([1]; 3 h after carrageenan): 0.336
- Inhibition of acute inflammation % inh ([1]; 4 h): 43.38%
- Swel (mean difference in rat paw volume between right and left paw) ([1]; 4 h after carrageenan): 0.356

- melting point: 125 to 127 °C
SMILES: CC1=CC(C)=C(C#N)C2SCN(Cc3ccccc3)CN12 (racemic) [Compound 4c]
- Inhibition of acute inflammation % inh ([1]; 1 h): 0%
- Swel (mean difference in rat paw volume between right and left paw) ([1]; 1 h after carrageenan): 0.45
- Inhibition of acute inflammation % inh ([1]; 2 h): 4.78%
- Swel (mean difference in rat paw volume between right and left paw) ([1]; 2 h after carrageenan): 0.22
- Inhibition of acute inflammation % inh ([1]; 3 h): 7.39%
- Swel (mean difference in rat paw volume between right and left paw) ([1]; 3 h after carrageenan): 0.213
- Inhibition of acute inflammation % inh ([1]; 4 h): 35.08%
- Swel (mean difference in rat paw volume between right and left paw) ([1]; 4 h after carrageenan): 0.409

SMILES: Cc1cc(C)c(C#N)c(=S)[nH]1 [Compound 1, 1,2-Dihydro-4,6-dimethyl-2-thioxopyridine-3-carbonitrile]
- Inhibition of acute inflammation % inh ([1]; 1 h): 0%
- Swel (mean difference in rat paw volume between right and left paw) ([1]; 1 h after carrageenan): 0.503
- Inhibition of acute inflammation % inh ([1]; 2 h): 0%
- Swel (mean difference in rat paw volume between right and left paw) ([1]; 2 h after carrageenan): 0.353
- Inhibition of acute inflammation % inh ([1]; 3 h): 38.725%
- Swel (mean difference in rat paw volume between right and left paw) ([1]; 3 h after carrageenan): 0.33
- Inhibition of acute inflammation % inh ([1]; 4 h): 43.91%
- Swel (mean difference in rat paw volume between right and left paw) ([1]; 4 h after carrageenan): 0.353

SMILES: CSc1nc(C)cc(C)c1C#N [Compound 3a, S-Methyl-4,6-dimethyl-2-thiopyridine-3-carbonitrile]
- Inhibition of acute inflammation % inh ([1]; 1 h): 0%
- Swel (mean difference in rat paw volume between right and left paw) ([1]; 1 h after carrageenan): 0.382
- Inhibition of acute inflammation % inh ([1]; 2 h): 0%
- Swel (mean difference in rat paw volume between right and left paw) ([1]; 2 h after carrageenan): 0.363
- Inhibition of acute inflammation % inh ([1]; 3 h): 12.438%
- Swel (mean difference in rat paw volume between right and left paw) ([1]; 3 h after carrageenan): 0.476
- Inhibition of acute inflammation % inh ([1]; 4 h): 43.7%
- Swel (mean difference in rat paw volume between right and left paw) ([1]; 4 h after carrageenan): 0.354

- melting point: 93 °C
SMILES: CCOC(=O)CSc1nc(C)cc(C)c1C#N [Compound 3b, ethyl 2-(3-cyano-4,6-dimethylpyridin-2-ylthio)acetate]

SMILES: CCOC(=O)c1sc2nc(C)cc(C)c2c1N [Compound 5, Ethyl-3-amino-4,6-dimethylthieno[2,3-b]pyridine-2-carboxylate]
- Inhibition of acute inflammation % inh ([1]; 1 h): 0%
- Swel (mean difference in rat paw volume between right and left paw) ([1]; 1 h after carrageenan): 0.393
- Inhibition of acute inflammation % inh ([1]; 2 h): 0%
- Swel (mean difference in rat paw volume between right and left paw) ([1]; 2 h after carrageenan): 0.46
- Inhibition of acute inflammation % inh ([1]; 3 h): 28.921%
- Swel (mean difference in rat paw volume between right and left paw) ([1]; 3 h after carrageenan): 0.386
- Inhibition of acute inflammation % inh ([1]; 4 h): 46.03%
- Swel (mean difference in rat paw volume between right and left paw) ([1]; 4 h after carrageenan): 0.34

SMILES: Cc1cc(C)c2c(N)c(C(=O)NN)sc2n1 [Compound 6, 3-Amino-4,6-dimethylthieno[2,3-b]pyridine-2-carbazide]
- Inhibition of acute inflammation % inh ([1]; 1 h): 0%
- Swel (mean difference in rat paw volume between right and left paw) ([1]; 1 h after carrageenan): 0.410
- Inhibition of acute inflammation % inh ([1]; 2 h): 0%
- Swel (mean difference in rat paw volume between right and left paw) ([1]; 2 h after carrageenan): 0.486
- Inhibition of acute inflammation % inh ([1]; 3 h): 38.84%
- Swel (mean difference in rat paw volume between right and left paw) ([1]; 3 h after carrageenan): 0.332
- Inhibition of acute inflammation % inh ([1]; 4 h): 58.67%
- Swel (mean difference in rat paw volume between right and left paw) ([1]; 4 h after carrageenan): 0.26

SMILES: COc1ccc(C=NNC(=O)c2sc3nc(C)cc(C)c3c2N)cc1 [Compound 7c, 3-Amino-4,6-dimethyl-thieno [2,3-b] pyridine-2-carboxylic acid (4-methoxy-benzylidene)-hyrazide]
- Inhibition of acute inflammation % inh ([1]; 1 h): 11.59%
- Swel (mean difference in rat paw volume between right and left paw) ([1]; 1 h after carrageenan): 0.203
- Inhibition of acute inflammation % inh ([1]; 2 h): 25.64%
- Swel (mean difference in rat paw volume between right and left paw) ([1]; 2 h after carrageenan): 0.193
- Inhibition of acute inflammation % inh ([1]; 3 h): 58.3%
- Swel (mean difference in rat paw volume between right and left paw) ([1]; 3 h after carrageenan): 0.226
- Inhibition of acute inflammation % inh ([1]; 4 h): 63.49%
- Swel (mean difference in rat paw volume between right and left paw) ([1]; 4 h after carrageenan): 0.23

- melting point: 300 to 302 °C
SMILES: Cc1cc(C)c2c(n1)sc1c(=O)n(N=Cc3ccccc3)nnc12 [Compound 8a, 7,9-Dimethyl-3-[(phenylmethylene)amino]pyrido[3′,2′:4,5]thieno[3,2-d][1,2,3]triazin-4(3H)-one]
- Inhibition of acute inflammation % inh ([1]; 1 h): 0%
- Swel (mean difference in rat paw volume between right and left paw) ([1]; 1 h after carrageenan): 0.256
- Inhibition of acute inflammation % inh ([1]; 2 h): 14.1%
- Swel (mean difference in rat paw volume between right and left paw) ([1]; 2 h after carrageenan): 0.223
- Inhibition of acute inflammation % inh ([1]; 3 h): 30.75%
- Swel (mean difference in rat paw volume between right and left paw) ([1]; 3 h after carrageenan): 0.376
- Inhibition of acute inflammation % inh ([1]; 4 h): 53.96%
- Swel (mean difference in rat paw volume between right and left paw) ([1]; 4 h after carrageenan): 0.29

- melting point: 150 to 152 °C
SMILES: Cc1cc(C)c2c(N)c(-n3nc(C)cc3C=C=O)sc2n1 [Compound 9b, 3-Amino-2-[carbonyl (3,5-dimethyl-pyrazol-1-yl)]-4,6-dimethylthieno[2,3-b] pyridine]

- melting point: 133 to 135 °C
SMILES: CC(=O)N(C(C)=O)n1c(C)nc2c(sc3nc(C)cc(C)c32)c1=O [Compound 10b, 3-Diacetylamino-2,7,9-trimethylpyrido [3',2':4,5]thieno[3,2-d]pyrimidin-4(3H)-one]

SMILES: CC(C)Cc1ccc(C(C)C(=O)O)cc1 (stereo not drawn) [Ibuprofen, reference compound]
- Inhibition of acute inflammation % inh ([1]; 1 h): 6.08%
- Inhibition of acute inflammation % inh ([1]; 2 h): 45%
- Inhibition of acute inflammation % inh ([1]; 3 h): 60.66%
- Inhibition of acute inflammation % inh ([1]; 4 h): 69.52%
- inflammation reduction % (4h) ([1]; rat paw oedema, 4 h time interval, subcutaneous, equimolar to ibuprofen 70 mg kg-1): 69.5% and 69.52%
